Data taken from PubChem BioAssay (NCI).
≈ marks a conversion by molar mass, not a printed value. Where “and” joins values, the source holds several entries; their conditions need not be identical. Identical values can stand only once.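 Exposure lasted 48 hours, with cells grown in 96-well plates and compounds tested at five concentrations. GI50: concentration for 50% inhibition of growth. TGI: total growth inhibition.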 Calls of active or inactive are those of the source. Cut-off read from the data, not from the text of the source: active = GI50 below about 0.43 µM; inactive = the rest.

Columns and labels:
Experiment in all cases: NCI tumour cell line growth inhibition, 48 h
[1] = tested on: NCI-H23 lung
[2] = tested on: RPMI-8226 leukemia
[3] = tested on: SF-295 CNS
[4] = tested on: CAKI-1 renal
[5] = tested on: DMS 114 small cell lung
[6] = tested on: SF-539 CNS
[7] = tested on: DLD-1 colon
[8] = tested on: UACC-257 melanoma
[9] = tested on: U251 CNS
[10] = tested on: HCT-15 colon
[11] = tested on: A498 renal
[12] = tested on: EKVX NSCLC
[13] = tested on: OVCAR-5 ovarian
[14] = tested on: SNB-75 CNS
[15] = tested on: SW-620 colon
[16] = tested on: SK-OV-3 ovarian
[17] = tested on: NCI-H522 lung
[18] = tested on: SN12K1 renal
[19] = tested on: SN12C renal
[20] = tested on: P388/ADR leukemia
[21] = tested on: HCC-2998 colon
[22] = tested on: M19-MEL melanoma
[23] = tested on: RXF 393 renal
[24] = tested on: OVCAR-3 ovarian
[25] = tested on: HOP-92 NSCLC
[26] = tested on: P388 leukemia
[27] = tested on: K-562 leukemia
[28] = tested on: CCRF-CEM leukemia
[29] = tested on: NCI-H460 lung
[30] = tested on: OVCAR-4 ovarian
[31] = tested on: KM12 colon
[32] = tested on: KM20L2 colon
[33] = tested on: HL-60(TB) leukemia
[34] = tested on: UO-31 renal
[35] = tested on: COLO 205 colon
[36] = tested on: MCF7 breast
[37] = tested on: A549 NSCLC
[38] = tested on: HT29 colon
[39] = tested on: HOP-62 NSCLC
[40] = tested on: MOLT-4 leukemia
[41] = tested on: NCI-H226 lung
[42] = tested on: T-47D breast
[43] = tested on: NCI/ADR-RES ovarian
[44] = tested on: MDA-MB-435
[45] = tested on: BT-549 breast
[46] = tested on: PC-3 prostate
[47] = tested on: HS 578T breast
[48] = tested on: MDA-MB-231 breast
[49] = tested on: DU-145 prostate
[50] = tested on: MDA-N
[51] = tested on: LXFL 529 NSCLC
[52] = tested on: TK-10 renal
[53] = tested on: SK-MEL-5 melanoma
[54] = tested on: LOX IMVI melanoma
[55] = tested on: SNB-19 CNS
[56] = tested on: IGROV1 ovarian
[57] = tested on: 786-0 renal
[58] = tested on: SR leukemia
[59] = tested on: DMS 273 small cell lung
[60] = tested on: HOP-18 NSCLC
[61] = tested on: XF 498 CNS
[62] = tested on: SK-MEL-28 melanoma
[63] = tested on: OVCAR-8 ovarian
[64] = tested on: HCT-116 colon
[65] = tested on: MALME-3M melanoma
[66] = tested on: SNB-78 CNS

Cc1c2ccncc2c(C)c2c1[nH]c1ccc(O)cc12
GI50 [1]: 11800 µM
TGI [1]: 84.1 mM and 0.0172 µg/mL
GI50 [2]: 0.0217 µg/mL
TGI [2]: 0.129 µg/mL
GI50 [3]: 0.0181 µg/mL (≈ 0.0692 µM)
TGI [3]: 0.167 µg/mL (≈ 0.638 µM)
GI50 [4]: 0.0137 µg/mL (≈ 0.0522 µM)
TGI [4]: 0.0686 µg/mL
GI50 [5]: 0.0226 µg/mL (≈ 0.0863 µM)
TGI [5]: 0.227 µg/mL
GI50 [6]: 0.263 µg/mL (≈ 1 µM)
TGI [6]: 1.29 µg/mL (≈ 4.93 µM)
GI50 [7]: 0.023 µg/mL (≈ 0.0875 µM)
TGI [7]: 0.883 µg/mL (≈ 3.37 µM)
GI50 [8]: 0.267 µg/mL (≈ 1.02 µM)
TGI [8]: 1.12 µg/mL (≈ 4.26 µM)
GI50 [9]: 0.042 µg/mL (≈ 0.16 µM)
TGI [9]: 0.35 µg/mL (≈ 1.33 µM)
GI50 [10]: 0.0107 µg/mL (≈ 0.0409 µM)
TGI [10]: 0.361 µg/mL
GI50 [11]: 0.501 µg/mL (≈ 1.91 µM)
TGI [11]: 1.9 µg/mL
GI50 [12]: 0.0921 µg/mL (≈ 0.351 µM)
TGI [12]: 0.273 µg/mL
GI50 [13]: 0.239 µg/mL (≈ 0.909 µM)
TGI [13]: 0.831 µg/mL
GI50 [14]: 22600 µM
GI50 [15]: 0.0267 µg/mL
TGI [15]: 3.94 µg/mL
GI50 [16]: 0.0393 µg/mL (≈ 0.15 µM)
TGI [16]: 0.261 µg/mL
TGI [17]: 0.172 µg/mL (≈ 0.657 µM)
GI50 [18]: 0.0168 µg/mL (≈ 0.0639 µM)
TGI [18]: 0.182 µg/mL
TGI [19]: 0.0638 µg/mL (≈ 0.243 µM)
GI50 [20]: 0.014 µg/mL (≈ 0.0532 µM)
TGI [20]: 1.75 µg/mL
GI50 [21]: 0.261 µg/mL (≈ 0.996 µM)
TGI [21]: 1.63 µg/mL (≈ 6.21 µM)
GI50 [22]: 0.0231 µg/mL (≈ 0.0881 µM)
TGI [22]: 0.388 µg/mL
GI50 [23]: 0.102 µg/mL (≈ 0.387 µM)
GI50 [24]: 0.0909 µg/mL (≈ 0.347 µM)
TGI [24]: 0.435 µg/mL (≈ 1.66 µM)
GI50 [25]: 0.0448 µg/mL (≈ 0.171 µM)
TGI [25]: 0.579 µg/mL
TGI [26]: 0.232 µg/mL
GI50 [27]: 0.0182 µg/mL (≈ 0.0695 µM)
TGI [27]: 0.675 µg/mL (≈ 2.57 µM)
GI50 [28]: 0.0158 µg/mL (≈ 0.06 µM)
TGI [28]: 0.31 µg/mL (≈ 1.18 µM)
GI50 [29]: 0.0157 µg/mL (≈ 0.0598 µM)
TGI [29]: 0.0467 µg/mL
GI50 [30]: 0.148 µg/mL (≈ 0.564 µM)
TGI [30]: 0.303 µg/mL
GI50 [31]: 0.0458 µg/mL (≈ 0.174 µM)
TGI [31]: 0.271 µg/mL
outcome [32]: inactive
TGI [33]: 0.0548 µg/mL (≈ 0.209 µM)
GI50 [34]: 0.073 µg/mL (≈ 0.278 µM)
TGI [34]: 1.09 µg/mL
GI50 [35]: 0.0699 µg/mL (≈ 0.267 µM)
TGI [35]: 0.455 µg/mL (≈ 1.73 µM)
GI50 [36]: 0.0319 µg/mL (≈ 0.122 µM)
TGI [36]: 0.338 µg/mL
TGI [37]: 0.397 µg/mL
GI50 [38]: 0.185 µg/mL (≈ 0.704 µM)
TGI [38]: 1.23 µg/mL
GI50 [39]: 0.0255 µg/mL (≈ 0.0972 µM)
TGI [39]: 0.206 µg/mL (≈ 0.787 µM)
TGI [40]: 0.0671 µg/mL (≈ 0.256 µM)
GI50 [41]: 0.137 µg/mL (≈ 0.522 µM)
TGI [41]: 1.08 µg/mL (≈ 4.12 µM)

COc1cccc2c1C(=O)c1c(O)c3c(c(O)c1C2=O)C[C@@](O)(C(C)=O)C[C@@H]3OC1CC(N(Cc2ccccc2)Cc2ccccc2)C(O)C(C)O1 (stereo partly specified)
TGI [42]: > 28.1 µM
TGI [43]: > 37.5 µM
TGI [44]: 14 µM
TGI [45]: > 50 µM
GI50 [15]: < 0.01 µM and 0.0869 µM
TGI [18]: > 46.9 µM
TGI [46]: > 28.1 µM
TGI [20]: > 50 µM
TGI [47]: > 50 µM
TGI [26]: 12.3 µM
TGI [48]: > 28.1 µM
TGI [49]: > 28.1 µM
TGI [50]: > 23.2 µM
GI50 [51]: < 0.01 µM
TGI [36]: > 36 µM

COc1cc([C@@H]2c3cc4c(cc3[C@@H](OC3OC5COC(C)OC5C(O)C3O)[C@H]3COC(=O)[C@H]23)OCO4)cc(OC)c1O (stereo partly specified)
GI50 [2]: 14.8 µM and 2.41 µM
TGI [2]: > 71.7 µM and 68 µM
TGI [4]: 31.4 µM and 77.1 µM and 49.2 µM
TGI [5]: 24.6 µM and 66.8 µM
TGI [52]: > 84.4 µM and 48.8 µM and 32 µM
GI50 [42]: 0.516 µM
TGI [42]: 5.18 µM
TGI [53]: 47.2 µM and 10.8 µM and 32.5 µM
TGI [10]: 285 µM and 169 µM
TGI [11]: 59.9 µM and 12 µM and 55.4 µM
TGI [43]: 178 µM and 500 µM and 650 µM
TGI [44]: 19 µM and 50 µM
TGI [12]: 149 µM and 500 µM and 183 µM
TGI [54]: > 81.1 µM and 11.6 µM and 42.9 µM
TGI [13]: 64.2 µM and 121 µM and 169 µM
TGI [55]: 118 µM and 500 µM and 171 µM
GI50 [45]: 1.83 µM
TGI [45]: 41.2 µM and 35 µM and 6.05 µM
TGI [56]: 67.8 µM and 159 µM and 157 µM
TGI [15]: 54.6 µM and 159 µM
TGI [16]: 62.3 µM and 500 µM and 120 µM
TGI [18]: 66.6 µM
GI50 [46]: 12.9 µM and 7.68 µM
TGI [20]: 411 µM
TGI [22]: 50.3 µM and 332 µM
GI50 [47]: 2.86 µM and 5.72 µM
TGI [57]: 43.3 µM and 28.1 µM and 9.35 µM
TGI [58]: 84.8 µM and 26.1 µM and 13.3 µM
TGI [25]: 37.9 µM and 114 µM
TGI [26]: 9.88 µM
GI50 [48]: 7.49 µM and 5.82 µM
TGI [48]: > 35 µM and 34.4 µM and 8.11 µM
GI50 [59]: 58.8 µM
TGI [59]: 32.9 µM
TGI [60]: 121 µM and 232 µM
TGI [61]: 73.6 µM and 71.1 µM
TGI [62]: 125 µM and 363 µM and 198 µM
TGI [29]: 57 µM and 9.96 µM and 25.3 µM
TGI [63]: 117 µM and 500 µM and 156 µM
TGI [64]: 25.8 µM and 90.4 µM and 130 µM
TGI [30]: 124 µM and 500 µM and 292 µM
GI50 [49]: 2.3 µM and 1.67 µM
TGI [65]: 72 µM [middle of 4 runs]
TGI [31]: 27.1 µM and 23.9 µM and 92.2 µM
TGI [32]: 133 µM and 225 µM
GI50 [50]: 18.6 µM
TGI [50]: 4.36 µM
TGI [51]: 218 µM
TGI [34]: 110 µM and 89.7 µM and 175 µM
TGI [36]: 103 µM and 500 µM and 432 µM
TGI [37]: 61.4 µM and 108 µM
TGI [38]: 79.8 µM and 500 µM and 125 µM
TGI [66]: 154 µM and 604 µM
